Data set [1] in a line: Dog cassette dosing pharmacokinetics. In kind it is in vivo, beagle dogs. The following applies: male, beagle, plasma, IV; for Vd: read-out: Vss; for half-life: read-out: t½ (converted). The procedure:
Non-naïve male beagle dogs (8 months to 3 years of age, body weight 8-14 kg) sourced from Jiangsu Johnsen Bioresource CO. and/or Beijing Rixinkeji CO., LTD and/or Beijing Marshall Biotechnology CO., LTD were used in this study. All animals for IV administration had free access to food and water. The IV dose solution was prepared in 10% DMA/50% PG/40% HPβCD solution (40% w/v aqueous HPβCD) at a concentration of 0.2 mg/mL. Concentrations of IV dose was measured at the end of the study. PK parameters were calculated using the nominal dose values if the measured values were within 20% of the nominal values. Blood samples were collected by venipuncture of peripheral veins except the dosing vein at pre-dose, 5 15, 30 min, 1, 2, 4, 6, 8 and 24 h post-dose. Blood samples were centrifuged and resultant plasma was frozen for bioanalysis. Plasma samples were stored at −80° C. before analysis. Plasma samples were analyzed for compound concentrations using the LC/MS/MS method. Briefly, a 50 μL aliquot of each plasma sample was mixed with 100 μL of acetonitrile that contained an internal standard. The mixture was vortexed and centrifuged. Ten (10) μL of the resulting solution was injected onto a reverse-phase C18 column and the resultant peaks detected on a LC/MS/MS equipped with a turbo ionspray ionization source. Sample concentrations below the limit of quantification (BLQ) were treated as zero for PK calculations. PK parameters were estimated from individual animals using noncompartmental analysis of the concentration-time data (Phoenix WinNonLin software, version 64; Pharsight, Mountain View, CA). The elimination rate constant (k) was calculated as the absolute value of the slope of the linear regression of logarithm (log) of the concentration versus time for the last three data points of the concentration-time profiles. Apparent elimination half-life (t1/2) values were calculated as ln(2)/k. Area under the concentration-time curve (AUC) values were estimated using linear trapezoidal method. AUCt values were calculated from the dosing time to the last measurable concentration. AUC∞ values were calculated as the sum of the corresponding AUCt and the ratio of the last detectable concentration divided by k. Plasma clearance (CL) was calculated from Dose/AUC∞. Mean resident time extrapolated to infinity (MRT∞) was estimated by moment analysis. Vss was calculated from MRT∞×CL. Maximum concentration (Cmax) and time to reach Cmax (tmax) were recorded as observed. As this was a cross-over study, bioavailability was calculated dAUC∞,po/dAUC∞,iv×100% where dAUC was the dose normalized AUC value from the same animal given IV and PO dose. Data for compounds tested are provided in Table G. Compounds tested were prepared in accordance with the synthetic procedures described herein.

Data set [2] has as its system bovine cardiac myofibrils. The experiment in a line: Myofibril assay (ATPase activity of skinned bovine cardiac myofibrils, PK/LDH-coupled). In kind it is biochemical. The conditions noted are these: inhibition of steady-state ATPase of bovine cardiac myofibrils; CaCl2 for 50% or 75% activation. The procedure:
To evaluate the effect of compounds on the ATPase activity of full-length cardiac myosin in the context of the native sarcomere, skinned myofibril assays were performed. Bovine cardiac myofibrils were obtained by homogenizing bovine cardiac left ventricular tissue in the presence of a detergent such as triton X-100. Such treatment removes membranes and a majority of the soluble cytoplasmic proteins but leaves intact the cardiac sarcomeric acto-myosin apparatus. Myofibril preparations retain the ability to hydrolyze ATP in a Ca^2+ regulated manner. ATPase activities of such myofibril preparations in the presence and absence of compounds were assayed at Ca^2+ concentrations activating to a defined fraction of the maximal rate (i.e., […], 75%). Small molecule agents were assessed for their ability to inhibit the steady-state ATPase activity of bovine cardiac myofibrils using pyruvate kinase and lactate dehydrogenase (PK/LDH)-coupled enzyme system. This assay regenerates myosin-produced ADP into ATP by oxidizing NADH, producing an absorbance change at 340 nm. Prior to testing small molecule agents, the bovine cardiac myofibrils were assessed for their calcium responsiveness and the calcium concentration that achieves either a 50% (pCa50) or 75% (pCa75) activation of the myofibril system was chosen as the final condition for assessing the inhibitory activity of the small molecule agents. All enzymatic activity was measured in a buffered solution containing 12 mM PIPES (piperazine-N,N′-bis(2-ethanesulfonic acid), 2 mM magnesium chloride at pH 6.8 (PM 12 buffer). Final assay conditions were 1 mg/mL of bovine cardiac myofibrils, 4 U/mL pyruvate kinase, 6 U/mL lactate dehydrogenase, 50 μM ATP, 0.1 mg/mL BSA (bovine serum albumin), 10 ppm antifoam, 1 mM DTT, 0.5 mM NADH, 1.5 mM PEP, 0.6 mM EGTA, and an amount of CaCl2 sufficient to achieve either 50% or 75% activation of the myofibril ATPase activity. Results for compounds tested are provided in Table A. Compounds tested were prepared in accordance with the synthetic procedures described herein.

Data set [3] can be described thus: Rat single dose pharmacokinetics. In kind it is in vivo, Sprague Dawley rats. The following applies: male, Sprague Dawley, plasma, IV. As for the experimental part:
Male Sprague Dawley rats were obtained from Zhejiang Vital River Laboratory Animal Technology Co., Ltd. The animals in IV group had free access to water and food. The animals in PO group were fasted overnight before dosing and provided with food 2 hours post dosing. The IV dose solution was prepared in 10% DMA/50% PG/40% HPβCD solution (40% w/v aqueous HPβCD) at a concentration of 1 mg/mL. The oral dosing suspension was prepared by suspending Test Article in 0.5% HPMC/0.1% Tween 80 in water at a concentration 0.2 mg/mL. Concentrations of IV and PO doses were measured at the end of the study. Pharmacokinetic parameters were calculated using the nominal dose values if the measured values were within 20% of the nominal values. Three rats were dosed IV via a bolus injection via caudal vein. Three rats per dose group were dosed by oral gavage. Blood samples were collected from the jugular vein cannula at predose, 5 (IV only), 15, 30 minutes, and 1, 2, 4, 6, and 24 hours post-dose. Blood volumes were replaced with an equal amount of sterile 0.9% saline. Blood samples were centrifuged and the collected plasma was stored at −80° C. for subsequent analysis. Plasma samples were analyzed for Test Article concentrations using a LC/MS/MS method. Briefly, a 50 μL aliquot of each plasma sample was mixed with 100 μL of acetonitrile that contained an internal standard. The mixture was vortexed and centrifuged. Ten (10) […] of the resulting solution was injected onto a reverse-phase C18 column and the resultant peaks detected on a LC/MS/MS equipped with a turbo ionspray ionization source. Sample concentrations below the limit of quantification (BLQ) were treated as zero for pharmacokinetic calculations. Pharmacokinetic parameters were estimated from individual animals using noncompartmental analysis of the concentration-time data (Phoenix WinNonLin software, version 64; Pharsight, Mountain View, CA). The elimination rate constant (k) was calculated as the absolute value of the slope of the linear regression of logarithm (log) of the concentration versus time for the last three data points of the concentration-time profiles. Apparent elimination half-life (t1/2) values were calculated as ln(2)/k. Area under the concentration-time curve (AUC) values were estimated using linear trapezoidal method. AUCt values were calculated from the dosing time to the last measurable concentration. AUC∞ values were calculated as the sum of the corresponding AUCt and the ratio of the last detectable concentration divided by k (AUCt-∞). Plasma clearance (CL) was calculated from Dose/AUC∞. Mean resident time (MRT) was estimated by moment analysis. Volume of distribution at steady state (Vss) was calculated from MRT∞×CL. Maximum concentration (Cmax) and time to reach Cmax (tmax) were recorded as observed. Bioavailability was calculated from the ratio of dose normalized AUC∞,po of individual rats/mean dAUC∞,iv×100% where dAUC was the dose normalized AUC value. Compounds tested were prepared in accordance with the synthetic procedures described herein.

The nature of data set [4]: Monkey cassette dosing pharmacokinetics. In kind it is in vivo. The conditions noted are these: IV; for clearance / Vd: male, plasma; for Vd: read-out: Vss.

The term clearance denotes the rate of elimination divided by the concentration.

As to `CC[C@H]1CC[C@H](N2CC(=O)N(Cc3ccc(Cl)cc3)C3(CN(C(N)=O)C3)C2=O)CC1` [Compound 1, 5-(4-chlorobenzyl)-8-((1r,4r)-4-ethylcyclohexyl)-6,9-dioxo-2,5,8-triazaspiro[3.5]nonane-2-carboxamide], in data set [1], the clearance stood at 3.65 mL/min/kg, the Vd was found to be 3.44 L/kg and the half-life was 12.5 h. In addition, the “CDMF IC15” value in data set [2] was found to be 800 nM.

As for `CC[C@H]1CC[C@H](N2CC(=O)N(Cc3ccc(F)cc3)C3(CN(C(N)=O)C3)C2=O)CC1` [Compound 2, 8-((1r,4r)-4-ethylcyclohexyl)-5-(4-fluorobenzyl)-6,9-dioxo-2,5,8-triazaspiro[3.5]nonane-2-carboxamide], in data set [1], the clearance came to 4.06 mL/min/kg, the Vd worked out at 1.99 L/kg and the half-life was 7.34 h. For the same compound, the “CDMF IC15” value in data set [2] turned out to be 2100 nM.

Consider `C[C@H]1CC[C@H](N2CC(=O)N(Cc3ccc(Cl)c(F)c3)C3(CN(C(N)=O)C3)C2=O)CC1` [Compound 3, 5-(4-chloro-3-fluorobenzyl)-8-((1r,4r)-4-methylcyclohexyl)-6,9-dioxo-2,5,8-triazaspiro[3.5]nonane-2-carboxamide], for which the clearance is 7.16 mL/min/kg in data set [1] and 78.5 mL/min/kg in data set [3]. Also, the Vd in data set [1] came out at 6.9 L/kg; in data set [3] (read-out: Vss), 14.7 L/kg. Further, the values for the half-life in data set [1] and in data set [3] were 13.1 h and 2.6 h, respectively. In data set [2], the “CDMF IC15” value came out at 700 nM.

As to `C[C@H]1CC[C@H](N2CC(=O)N(Cc3ccc(Cl)cc3)C3(CN(c4cccnn4)C3)C2=O)CC1` [Compound 10, 5-(4-chlorobenzyl)-8-((1r,4r)-4-methylcyclohexyl)-2-(pyridazin-3-yl)-2,5,8-triazaspiro[3.5]nonane-6,9-dione], in data set [1], the clearance turned out to be 36.3 mL/min/kg, the Vd was 18.6 L/kg and the half-life was 9.38 h. Besides, the “CDMF IC15” value in data set [2] stood at 300 nM.

As to `CC[C@H]1CC[C@H](N2CC(=O)N(Cc3ccc(F)c(F)c3)C3(CN(C(N)=O)C3)C2=O)CC1` [Compound 11, 5-(3,4-difluorobenzyl)-8-((1r,4r)-4-ethylcyclohexyl)-6,9-dioxo-2,5,8-triazaspiro[3.5]nonane-2-carboxamide], in data set [4], the “t l/2” value is reported as 3.03 h, the clearance worked out at 33.1 mL/min/kg and the Vd amounted to 7.26 L/kg. For the same compound, in data set [1], the clearance turned out to be 6.3 mL/min/kg, the Vd was determined as 4.42 L/kg and the half-life is 9.66 h. Besides, the “CDMF IC15” value in data set [2] is 700 nM.

In the case of `C[C@H]1CC[C@H](N2CC(=O)N(Cc3ccc(F)c(F)c3)C3(CN(c4cccnn4)C3)C2=O)CC1` [Compound 12, 5-(3,4-difluorobenzyl)-8-((1r,4r)-4-methylcyclohexyl)-2-(pyridazin-3-yl)-2,5,8-triazaspiro[3.5]nonane-6,9-dione], in data set [1], the clearance turned out to be 34.4 mL/min/kg, the Vd worked out at 17.8 L/kg and the half-life was 7.39 h. In addition, the “CDMF IC15” value in data set [2] turned out to be 400 nM.

In the case of `CC[C@H](C)N1CC(=O)N(Cc2ccc(F)c(F)c2)C2(CN(c3cccnn3)C2)C1=O` [Compound 14, (S)-8-(sec-butyl)-5-(3,4-difluorobenzyl)-2-(pyridazin-3-yl)-2,5,8-triazaspiro[3.5]nonane-6,9-dione], in data set [4], the “t l/2” value is 1.1 h, the clearance is 17.1 mL/min/kg and the Vd came to 1.48 L/kg. Moreover, in data set [1], the clearance was determined as 36.5 mL/min/kg, the Vd came out at 6.44 L/kg and the half-life is 2.43 h. Besides, the “CDMF IC15” value in data set [2] was determined as 1300 nM.

For the compound `CCC(CC)N1CC(=O)N(Cc2ccc(F)c(F)c2)C2(CN(c3cccnn3)C2)C1=O` [Compound 15, 5-(3,4-difluorobenzyl)-8-(pentan-3-yl)-2-(pyridazin-3-yl)-2,5,8-triazaspiro[3.5]nonane-6,9-dione], in data set [1], the clearance stood at 24.2 mL/min/kg, the Vd is 2.84 L/kg and the half-life was 1.49 h. Moreover, the “CDMF IC15” value in data set [2] worked out at 1400 nM.

Regarding `CC[C@H](C)N1CC(=O)N(Cc2ccc(F)c(C)c2)C2(CN(c3cccnn3)C2)C1=O` [Compound 16, (S)-8-(sec-butyl)-5-(4-fluoro-3-methylbenzyl)-2-(pyridazin-3-yl)-2,5,8-triazaspiro[3.5]nonane-6,9-dione], in data set [1], the clearance turned out to be 33 mL/min/kg, the Vd is 7.08 L/kg and the half-life was 3.07 h. Further, in data set [2], the “CDMF IC15” value was determined as 900 nM.

With `C[C@H]1CC[C@H](N2CC(=O)N(Cc3ccc(F)cc3)C3(CN(c4cccnn4)C3)C2=O)CC1` [Compound 17, 5-(4-fluorobenzyl)-8-((1r,4r)-4-methylcyclohexyl)-2-(pyridazin-3-yl)-2,5,8-triazaspiro[3.5]nonane-6,9-dione], in data set [1], the clearance stood at 41.9 mL/min/kg, the Vd was 8.25 L/kg and the half-life is 3.02 h. In addition, in data set [2], the “CDMF IC15” value worked out at 900 nM.

The values are drawn from patent US12286437B2, “Cardiac sarcomere inhibitors” (Cytokinetics, Inc., priority 2021, dated 2025).
